Data set [1] deals with myocardial ketone body utilization. In words: Ketone body utilization in the heart in vivo measured by hyperpolarized 13C-MRS. On the set-up: species or system rat. From the text: Male non-obese diabetic Goto-Kakizaki (GK/MolTac; n=10) rats bred by Taconic (New York, US) were ordered from InVivos (Singapore). Male wild-type Wistar Han rats (n=10) were purchased from InVivos (Singapore) and served as controls. At 24 weeks of age, the animals underwent ^13C MRS and MRI to determine myocardial ketone body utilization and cardiac function. The animals were anaesthetized with isoflurane (3% for induction; 1.5-2% for maintenance) in medical air and oxygen at a flow rate of 2.0 L/min and 0.5 L/min, respectively. A catheter was inserted into the tail vein for intravenous administration of the hyperpolarized [3-^13C] acetoacetate inside the MRI scanner. At the end of the study, the animals were sacrificed. Blood and organs were collected and stored at −80° C. for biochemical analysis. All procedures involving animals were approved by A*STAR Institutional Animal Care and Use Committee (#171204)
Rats were positioned supine in a 9.4 T horizontal bore MR scanner interfaced to a Avance III HD console (Biospec, Bruker, Germany), with the heart directly above a dual-tuned (^1H/^13C) rat surface coil (diameter: 30 mm). Correct positioning was confirmed by the acquisition of an axial proton FLASH image (TE/TR, 8.0/100.0 ms; matrix size, 128×128; FOY, 40×40 mm; slice thickness, 1.5 mm; excitation flip angle, 30°). A cardiac-triggered and respiratory-gated shim was used to reduce the proton linewidth to approximately 160 Hz. Immediately before injection, a respiratory-gated ^13C MR pulse-acquire spectroscopy sequence was initiated. Then, hyperpolarized [3-^13C]acetoacetate (0.75-1.05 mL; 0.240 mmol/kg body weight) was injected via tail vein at a rate of 6 mL/min. Sixty individual heart spectra were acquired over 2 minutes after injection (TR, 2 s; excitation flip angle, 25°; sweep width, 8,000 Hz; acquired points, 4,096; frequency centered at 190 ppm from tetramethylsilane (TMS) standard).
Cardiac ^13C MR spectra were analyzed using the AMARES algorithm as implemented in the jMRUI software package (Naressi A, et al. Magn Reson Mater Physics, Biol Med. 2001; 12:141). Spectra were baseline and DC offset-corrected based on the last half of acquired points. To quantify myocardial ketone metabolism, spectra were summed over the first 30 seconds upon acetoacetate arrival. Peaks corresponding to [3-^13C]acetoacetate and its metabolic derivatives [5-^13C]glutamate, [1-^13C]acetoacetate, and [1-^13C]acetylcarnitine were fitted with prior knowledge assuming a Lorentzian line shape, peak frequencies, relative phases, and linewidths. The fitted amplitudes were then normalized to the amplitude of [3-^13C]acetoacetate.

The conditions of data set [2]: 0.240 mmol/kg i.v.
Data set [3] is described as follows: Hyperpolarization (DNP) and lifetime of [3-13C]acetoacetate. The format is physicochemical. As for the experimental part:
Approximately 51 mg of [3-^13C]acetoacetate, doped with 5.5 mg of trityl-radical (OX063, GE Healthcare), 250 μl of gadoterate meglumine (1.2 mmol/L, Dotarem®, Guerbet) and […] of DMSO (25% v/v) was prepared. Total volume is approximately […], resulting in 1.23 mol/L of [3-^13C]acetoacetate, 9.3 mmol/L of OX063, and 0.80 mmol/L of gadolinium. […] of the sample was hyperpolarized in a polarizer (Hypersense, Oxford Instruments, Oxford, UK), with 120 min of microwave irradiation at 94.097 GHz. The polarized sample was subsequently dissolved in 3 mL of pressurized and heated Tris-EDTA buffer with pH 7.80, to yield a solution of 80 mmol/L hyperpolarized [3-^13C]acetoacetate with a polarization of 10% and physiological temperature and pH.
The Examiner first determined whether the synthesized [3-^13C]acetoacetate can be hyperpolarized with sufficient polarization and lifetime for in vivo application. After 120 minutes of microwave irradiation at 1.2 K, the achieved polarization was 10.3±1.2% and T1 was 28.2±3.1 s. Besides the main substrate peak at 209.9 ppm and the natural abundance [1-^13C]acetoacetate at 174.6 ppm, an impurity peak was detected at 181.0 ppm. The amplitude of the impurity peak is 0.19±0.01% of the [3-^13C]acetoacetate signal. The impurity peak is very close to the expected [5-^13C]glutamate peak at 181.2 ppm (FIG. 2B). […]

In the next data set the test system is insulin secretion. The following applies: infusion in man, concentration higher than 2 mM; cited from earlier work.
Data set [4] has as its target T1, sodium/glucose co-transporter-2 (SGLT-2) (Homo sapiens, UniProt P31639).
T1 construct: host or cells: diabetic patients (in vivo)
T1 sequence (P31639 1-672): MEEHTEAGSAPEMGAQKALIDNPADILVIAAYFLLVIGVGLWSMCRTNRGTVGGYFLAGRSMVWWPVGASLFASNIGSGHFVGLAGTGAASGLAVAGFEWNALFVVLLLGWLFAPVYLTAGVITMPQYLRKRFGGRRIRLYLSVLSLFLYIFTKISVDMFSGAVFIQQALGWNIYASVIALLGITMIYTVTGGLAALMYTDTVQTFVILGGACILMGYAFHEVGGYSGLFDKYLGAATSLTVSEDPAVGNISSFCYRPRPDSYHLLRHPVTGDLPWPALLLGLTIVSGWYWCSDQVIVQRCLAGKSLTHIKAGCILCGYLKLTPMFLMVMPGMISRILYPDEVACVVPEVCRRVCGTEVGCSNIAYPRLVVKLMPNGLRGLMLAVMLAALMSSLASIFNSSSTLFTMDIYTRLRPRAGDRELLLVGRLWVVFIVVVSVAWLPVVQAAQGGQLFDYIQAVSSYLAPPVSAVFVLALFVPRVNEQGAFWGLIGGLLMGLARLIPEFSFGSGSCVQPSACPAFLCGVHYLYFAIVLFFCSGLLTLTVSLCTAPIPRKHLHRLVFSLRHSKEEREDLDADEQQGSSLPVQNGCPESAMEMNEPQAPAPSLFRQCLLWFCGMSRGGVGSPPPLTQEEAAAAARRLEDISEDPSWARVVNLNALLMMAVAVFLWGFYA
The following applies: cited from earlier work.

The next data set has as its system myocardial infarct. The following applies: fasted rats, ischemia-reperfusion; cited from earlier work.
For another data set, the system named is blood glucose. The data set can be described thus: Intraperitoneal insulin tolerance test (IpITT). The format is in vivo, rat. The following applies: diabetic GK rats, insulin 1 U/kg i.p. As for the experimental part: The response to insulin glucose tolerance was determined by measuring the blood glucose levels before and at 60, 120, 180, 240, 300, and 360 minutes after intraperitoneal injection of insulin solution (1 U/kg body weight).

The mark [5] stands for this setting: diabetic GK vs control rats, P=0.002.
[6] abbreviates: rat heart, i.v., 13C MRS time resolution 2 s.

Values joined by “and” are separate entries in the source; they are usually repeats but may differ in a detail not shown here. Equal entries are not always repeated. Where two headings read alike, the source gives them in different places.

Turning to `C[13C](=O)CC(=O)[O-].[Li+]` [[3-^13C]acetoacetate, lithium [3-^13C]acetoacetate], the “production of [3-13C]β-OHB” value in data set [1] (diabetic GK vs control rats, P=0.001) is “lower in diabetic rats than in control rats”. Besides, in data set [1] (setting [5]), the “production of [5-13C]glutamate” value is “higher in the diabetic rats than in controls” and the “total production of [5-13C]glutamate+[1-13C]citrate” value was “also higher in the diabetic rats compared with controls”. Moreover, in data set [1] (diabetic GK vs control rats, normalized to [3-13C]acetoacetate, P=0.009), the “total products of ketone body utilization ([5-13C]glutamate+[1-13C]acetylcarnitine)” value is recorded as “higher in the diabetic rats compared with controls”. Besides, the “[5-13C]glutamate metabolite signal, relative to [3-13C]acetoacetate signal” value in data set [1] (rat heart in vivo, i.v. injection) was 2-4 % of the [3-13C]acetoacetate s. Moreover, in data set [1] (setting [6]), the “appearance of 13C label in [1-13C]acetylcarnitine and [5-13C]glutamate after acetoacetate peaks” value was 2 to 4 s; the “appearance of [1-13C]citrate” value lay in the range of 8 to 10 s. For the same compound, in data set [2] (GK rats), the “calculated acetoacetate concentration in the blood after injection” value is on record as 4.30 mM. Besides, the “calculated acetoacetate concentration in the blood after injection” value in data set [2] (control rats) is 4.27 mM. In addition, the achieved polarization in data set [3] (120 min microwave irradiation at 1.2 K, DNP) was 10.3±1.2% and 10%. In addition, the T1 in data set [3] (after 120 min microwave irradiation at 1.2 K) came to 28.2 ± 3.1 s.

Turning to `CC(=O)CC(=O)O` [acetoacetate], in the data set with insulin secretion, the “effect on insulin secretion” value was “transient stimulatory effect on insulin secretion” and the “time after which the effect on insulin secretion abates” value was 10 to 15 min.

Regarding `OC[C@H]1O[C@@H](c2ccc(Cl)c(Cc3ccc(O[C@H]4CCOC4)cc3)c2)[C@H](O)[C@@H](O)[C@@H]1O` [empagliflozin], in data set [4] (after empagliflozin treatment), the “plasma ketone body concentration” value was “increase in plasma ketone body concentration”. The cardiovascular outcome in data set [4] (diabetic patients) is given as “improved cardiovascular outcome”.

Regarding `CC(O)CC(=O)O` (stereo not drawn) [β-OHB, β-hydroxybutyrate], the “myocardial infarct size and apoptosis” value in the data set with myocardial infarct is “reduced myocardial infarct size and apoptosis”.

For “insulin: insulin solution injected intraperitoneally in the insulin tolerance test”, in the data set with blood glucose, the “blood glucose during insulin tolerance test” value is on record as “lowered blood glucose”.

(Values after US10995054B2, “Hyperpolarized [3-13C]acetoacetate and methods of using the same” (Agency for Science, Technology and Research, priority 2016, dated 2021).)
